From patent US5610174A, “Use of α1A -selective adrenoceptor agonists for the treatment of urinary incontinence” (priority 1995, dated 1997)

Tests used:
α2-adrenoceptors = test: Activity at human α2-adrenoceptors (overall statement); format: cell-based; settings: result in words
Experimental: α2 -Adrenoceptor-Mediated Inhibition of Forskolin Stimulated Adenylyl Cyclase
The agonist activity of test compounds was assayed by measuring their ability to inhibit adenylyl cyclase in cells stably transfected with each of the three cloned human α2 -adrenoceptors. LM(tk-) cells expressing the α2A - or the α2C -, as well as Y1 cells expressing the α2B -adrenoceptor were used. […] The formation of cyclic AMP was measured in cultures incubated with DMEM containing 1 mM theophylline. Twelve concentrations of the test compounds (from 10 pM to 100 μM) were added to the incubation medium and incubated at 37° C. for 20 min. Following this incubation step, 10 μM forskolin was added to stimulate the formation of cyclic AMP, and the cultures were incubated for another 10 min. The reaction was stopped by replacing the incubation medium with 100 mM HCl . The intracellular levels of cyclic AMP were measured by radioimmunoassay. The data from concentration-response curves was fitted to a four-parameter logistic equation, by non-linear regression analysis, to determine the pEC50 and intrinsic activity.

[1] = target: T1, human urethra (α1-adrenoceptor) (Homo sapiens, UniProt P35348); test: Contractile study in isolated human male urethra; settings: versus phenylephrine-induced contraction; read-out: pKB Human Urethra Male (converted)
T1 construct: Tissue samples from the proximal urethra of male humans; from tissue; host or cells: human male proximal urethra strips
T1 sequence (P35348 1-466): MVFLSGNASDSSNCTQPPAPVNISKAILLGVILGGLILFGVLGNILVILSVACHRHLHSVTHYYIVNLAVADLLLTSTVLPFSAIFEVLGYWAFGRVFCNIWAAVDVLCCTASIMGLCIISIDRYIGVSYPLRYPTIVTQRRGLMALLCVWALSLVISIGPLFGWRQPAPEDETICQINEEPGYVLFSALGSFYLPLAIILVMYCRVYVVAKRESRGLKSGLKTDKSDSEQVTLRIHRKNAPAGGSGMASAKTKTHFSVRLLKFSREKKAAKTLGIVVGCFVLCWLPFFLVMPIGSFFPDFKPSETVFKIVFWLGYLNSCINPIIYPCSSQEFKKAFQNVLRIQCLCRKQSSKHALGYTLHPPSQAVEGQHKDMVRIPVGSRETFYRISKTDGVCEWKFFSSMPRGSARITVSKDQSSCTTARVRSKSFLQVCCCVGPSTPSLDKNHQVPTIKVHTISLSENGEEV
Description: In addition, similar studies were done using bladder neck tissue from female dogs. In order to identify the specific receptor subtype in each tissue, the pharmacological profile was compared to the profiles for these same drugs at the cloned human α1A, α1B, or α1C subtypes.
Tissue samples from the proximal urethra of male humans and male and female rabbits, as well as tissue samples from both the proximal urethra and bladder neck of male and female dogs were cut into transverse strips (3×10 mm) and suspended under 0.5 g tension in Krebs' physiological buffer at 37° C. To determine agonist potency (pEC50 )and antagonist affinity constants (pKB), concentration-effect curves to the non-selective agonist phenylepherine were constructed in the absence and in the presence of increasing concentrations of the antagonist. Up to four sequential curves were constructed in each tissue. Antagonists were allowed to equilibrate for 1h before each concentration-effect curve, and the drugs were completely washed out in between successive curves. In each experiment, one tissue served as a "time control", in which no antagonist was added so that changes in tissue sensitivity could be assessed as a function of time. […] In instances in which a single concentration of antagonist was used, pKB values were determined by the equation: […], where CR is defined as the ratio of the agonist EC50 in the presence of the antagonist to that in the absence of the antagonist.

| SMILES | activity at α2-adrenoceptors (α2-adrenoceptors) | Kb [1] [nM] |
| --- | --- | --- |
| CNCCc1ccc(O)c(NS(C)(=O)=O)c1 [SK&F 102652] | significant activity |  |
| COc1ccccc1N1CCN(CCCNc2c(C)c(=O)n(C)c(=O)n2C)CC1 [Compound 5-MU] |  | 1.58 |
| CS(=O)(=O)Nc1c(O)ccc2c1CCCC2C1=NCCN1 (racemic) [Compound A-61603, (±)-N-[5-(4,5-Dihydro-1H-imidazol-2-yl)-2-hydroxy-5,6,7,8-tetra-hydronaphthalen-1-yl]methanesulfonamide] | significant activity |  |
| COc1cc2c(cc1OC)CN(c1cc(N)c3cc(OC)c(OC)cc3n1)CC2 [Abanoquil, 2-(6,7-Dimethoxy-3,4-dihydro-1H-isoquinolin-2-yl)-6,7-dimethoxyquinolin-4-ylamine hemifumarate hydrate] |  | 0.251 |
